Publication PMC3961306, “Comparison of the Cancer Gene Targeting and Biochemical Selectivities of All Targeted Kinase Inhibitors Approved for Clinical Use” (PLoS ONE, 2014)
pIC50: −log10 of the molar value. Where two headings read alike, the source gives them in different places.

System: forty-four human cancer cell lines
Test: Cell proliferation assay (ATPlite, 72 hours) in the 44 cell line Oncolines panel
Format: cell-based
Conditions: for pIC50: Homo sapiens
[1] = 4-4 cell, read-out: cell panel IC50, J82
[2] = 4-4 cell, read-out: cell panel IC50, PA-1
[3] = 4-4 cell, read-out: cell panel IC50, SJCRH30
[4] = 4-4 cell, read-out: cell panel IC50, SR
[5] = 769-P, read-out: cell panel IC50, 769-P
[6] = 786-0, read-out: cell panel IC50, 786-0
[7] = A 172, read-out: cell panel IC50, A-172
[8] = A204, read-out: cell panel IC50, A-204
[9] = A498, read-out: cell panel IC50, A-498
[10] = A549, read-out: cell panel IC50, A-549
[11] = A-375, read-out: cell panel IC50, A375
[12] = A-427, read-out: cell panel IC50, A-427
[13] = ACHN, read-out: cell panel IC50, ACHN
[14] = AN3-CA, read-out: cell panel IC50, AN3 CA
[15] = AU565, read-out: cell panel IC50, AU-565
[16] = BT-20, read-out: cell panel IC50, BT-20
[17] = BT-549, read-out: cell panel IC50, BT-549
[18] = BXPC-3, read-out: cell panel IC50, BxPC-3
[19] = C-33-A, read-out: cell panel IC50, C-33 A
[20] = CAL-27, read-out: cell panel IC50, CAL 27
[21] = CCRF-CEM, read-out: cell panel IC50, CCRF-CEM
[22] = DLD-1, read-out: cell panel IC50, DLD-1
[23] = FaDu, read-out: cell panel IC50, FaDu
[24] = HCT-15, read-out: cell panel IC50, HCT-15
[25] = HCT-116, read-out: cell panel IC50, HCT-116
[26] = Hs-578T, read-out: cell panel IC50, Hs 578T
[27] = Jurkat E6.1, read-out: cell panel IC50, Jurkat E6.1
[28] = K562, read-out: cell panel IC50, K-562
[29] = LS174T, read-out: cell panel IC50, LS 174T
[30] = LoVo, read-out: cell panel IC50, LoVo
[31] = MG-63, read-out: cell panel IC50, MG-63
[32] = MOLT-4, read-out: cell panel IC50, MOLT-4
[33] = MeWo, read-out: cell panel IC50, MeWo
[34] = NCI-H82, read-out: cell panel IC50, NCI-H82
[35] = NCI-H460, read-out: cell panel IC50, NCI-H460
[36] = OVCAR-3, read-out: cell panel IC50, OVCAR-3
[37] = RPMI-7951, read-out: cell panel IC50, RPMI-7951
[38] = SHP77, read-out: cell panel IC50, SHP-77
[39] = SK-N-AS, read-out: cell panel IC50, SK-N-AS
[40] = SW48, read-out: cell panel IC50, SW48
[41] = SW480, read-out: cell panel IC50, SW480
[42] = SW-620, read-out: cell panel IC50, SW620
[43] = U2OS, read-out: cell panel IC50, U-2 OS
[44] = U-87 MG, 72 h, read-out: IC50 in cell proliferation assay (table S5 cellpanel data)

CN(C)C/C=C/C(=O)Nc1cc2c(Nc3ccc(F)c(Cl)c3)ncnc2cc1O[C@H]1CCOC1 [afatinib]
pIC50 [1]: 5.48 | pIC50 [2]: 5.72 | pIC50 [3]: 5.61 | pIC50 [4]: 6.01 | pIC50 [5]: 5.65 | pIC50 [6]: 5.56 | pIC50 [7]: 5.53 | pIC50 [8]: 5.65 | pIC50 [9]: 5.56 | pIC50 [10]: 5.50 | pIC50 [11]: 5.89 | pIC50 [12]: 5.54 | pIC50 [13]: 6.53 | pIC50 [14]: 5.56 | pIC50 [15]: 7.89 | pIC50 [16]: 5.36 | pIC50 [17]: 5.49 | pIC50 [18]: 5.43 | pIC50 [19]: 7.68 | pIC50 [20]: 6.36 | pIC50 [21]: 5.89 | pIC50 [22]: 5.77 | pIC50 [23]: 8.47 | pIC50 [24]: 5.81 | pIC50 [25]: 6.03 | pIC50 [26]: 5.47 | pIC50 [27]: 6.06 | pIC50 [28]: 5.49 | pIC50 [29]: 5.88 | pIC50 [30]: 5.68 | pIC50 [31]: 5.55 | pIC50 [32]: 6.04 | pIC50 [33]: 5.42 | pIC50 [34]: 5.65 | pIC50 [35]: 5.58 | pIC50 [36]: 5.68 | pIC50 [37]: 5.45 | pIC50 [38]: 5.44 | pIC50 [39]: 5.65 | pIC50 [40]: 5.38 | pIC50 [41]: 5.44 | pIC50 [42]: 5.47 | pIC50 [43]: 5.59 | pIC50 [44]: 5.30

Cc1nc(Nc2ncc(C(=O)Nc3c(C)cccc3Cl)s2)cc(N2CCN(CCO)CC2)n1 [dasatinib]
Difference between the average IC50 in the cell panel and the most potent IC50 (44 cell line panel, Figure 2D): more than 1000 fold | pIC50 [1]: 5.60 | pIC50 [2]: 7.26 | pIC50 [3]: 5.89 | pIC50 [4]: 5.52 | pIC50 [5]: 7.26 | pIC50 [6]: 6.44 | pIC50 [7]: 7.00 | pIC50 [8]: 7.68 | pIC50 [9]: 6.17 | pIC50 [10]: 4.99 | pIC50 [11]: 6.29 | pIC50 [12]: 5.66 | pIC50 [13]: 7.32 | pIC50 [14]: 5.45 | pIC50 [15]: 5.15 | pIC50 [16]: 5.01 | pIC50 [17]: 6.84 | pIC50 [18]: 6.69 | pIC50 [19]: 8.05 | pIC50 [20]: 6.82 | pIC50 [21]: 5.14 | pIC50 [22]: 5.47 | pIC50 [23]: 6.35 | pIC50 [24]: 5.78 | pIC50 [25]: 4.85 | pIC50 [26]: 7.10 | pIC50 [27]: 5.62 | pIC50 [28]: 9.33 | pIC50 [29]: 5.46 | pIC50 [30]: 5.80 | pIC50 [31]: < 5.00 | pIC50 [32]: 6.06 | pIC50 [33]: 4.77 | pIC50 [34]: 4.99 | pIC50 [35]: 4.72 | pIC50 [36]: 6.92 | pIC50 [37]: 7.47 | pIC50 [38]: < 4.50 | pIC50 [39]: 6.20 | pIC50 [40]: < 4.50 | pIC50 [41]: 5.68 | pIC50 [42]: 4.91 | pIC50 [43]: 5.49 | pIC50 [44]: 4.83
